# In PubChem BioAssay (NCI):
#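 Grown in 96-well plates, cells were treated for 48 hours with each compound at five concentrations. Insufficient inhibition: endpoint recorded as highest concentration tested. GI50 marks 50% less growth. TGI denotes the concentration required for complete inhibition of growth.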
# System: NCI-H460 lung
# Test: DTP human tumour cell line panel, 48 h
Structure (SMILES),TGI [µM],GI50 [µM]
N.N.N.N.O=[N+]([O-])[O-].[Co+3].[N-]=[N+]=[N-].[N-]=[N+]=[N-],> 100,
COC(=O)C1CCC(=O)N1C(c1ccccc1)c1ccc(OC)c(OC)c1 (stereo not given),> 100,
CC[C@@]1(C[C@H]2C[C@@]3(C(=O)OC)c4[nH]c5ccccc5c4CCN3C2=O)COC2(CCCCC2)O1,> 100,
COc1ccc2c(=O)c(O)c(-c3ccc(OC)c(OC)c3)oc2c1,> 100,
CC(C)CCCCCCCCCCCCC(=O)NCC(=O)NC1C(C)OC(Nc2ncnc3c2ncn3C)C(O)C1O (stereo not given),> 100,
COc1ccc(C2c3cc4c(cc3OC(NNS(=O)(=O)c3ccc(C)cc3)C2C)OCO4)cc1 (stereo not given),> 100,
c1ccc(N=C2SC3=Nc4cccc5cccc(c45)N3C2=Nc2ccccc2)cc1,> 100,
CCC12C=CCN3CCC4(C(=C(C(=O)OC)[C@@H]1O)Nc1ccccc14)C32 (stereo not given in full),3.71,
O=C(O)CN(CC(=O)O)C1CCCCC1N(CC(=O)O)CC(=O)NCCN=C=S (stereo not given),> 100,
Oc1cc2c3c(c1)c1cc4c(cc1c[n+]3CC2)OCO4,> 23.9,
COc1nc(N)c(C(=O)CCl)c(=O)n1C,39.5,
O=C1CCC23CC(C=CC=C12)n1c(=O)n(-c2ccccc2)c(=O)n13 (stereo not given),> 100,
[N-]=[N+]=Nc1cc(=O)oc2ccccc12,> 100,
CC(=O)NC1=C(NCCC(C)C)C(=O)c2ccccc2C1=O,> 50,
Nc1cccc2cc(Cl)cnc12,> 100,
O=C([O-])CC(=O)[O-].O=C([O-])CC(=O)[O-].[K+].[Pd+2],> 100,> 100

# System: TK-10 renal
# Test: DTP human tumour cell line panel, 48 h
Structure (SMILES),TGI [µM],GI50 [µM]
O=c1[nH][nH]c(=O)n1Cc1ccccc1Cn1c(=O)[nH][nH]c1=O,> 100,
CC1C=C(CCCCCCCCCCCC[C@@H](O)[C@@H]2CC[C@@H]([C@@H]3CC[C@@H](C(O)CCCCCCCCCCCCC4=C[C@H](C)OC4=O)O3)O2)C(=O)O1 (stereo not given in full),> 100,
CCOC(=O)c1c2ccccc2n2c(N)c(C(N)=O)nnc12,40.5,
CC[C@@]1(O)C(=O)OCc2c1cc1n(c2=O)Cc2c-1nc1ccccc1c2/C=N\NC(=O)CN,> 100,
CCOC(=O)C(NC(C)=O)(Nc1ccc(F)cc1)C(F)(F)F (stereo not given),> 100,
CCOc1cc2c(cc1O)/C(=N\OC)C[C@@H]1[C@@H]2CC[C@]2(C)[C@@H](O)CC[C@@H]12,> 100,
CC1(C)N=C(/C(Cl)=[N+](/[O-])C(=O)c2ccc(F)cc2)C(C)(C)N1O,29.7,
COC(=O)[C@H]1CO[C@@H](C(C)(C)C)N1C(=O)N1C=CC(=O)C[C@@H]1C,> 100,
C[n+]1c2ccccc2c(/C=N\NS(=O)(=O)c2ccc(O)c(C(=O)O)c2)c2ccccc21,> 100,
Clc1ccc(/C=C/c2nc3ccccc3s2)cc1Cl,> 100,
Cc1ccc(SCC(CSCCO)OCn2cnc3c2NC(N)=NC32OCCO2)cc1 (stereo not given),> 100,
CC(=O)Nc1ccc(-c2nnc(SCC(=O)Nc3ccc([N+](=O)[O-])cc3)o2)cc1,27.9,
N.N.N.N.O=[N+]([O-])[O-].[Co+3].[N-]=[N+]=[N-].[N-]=[N+]=[N-],> 100,
COC(=O)C1CCC(=O)N1C(c1ccccc1)c1ccc(OC)c(OC)c1 (stereo not given),> 100,
CC[C@@]1(C[C@H]2C[C@@]3(C(=O)OC)c4[nH]c5ccccc5c4CCN3C2=O)COC2(CCCCC2)O1,> 100,
COc1ccc2c(=O)c(O)c(-c3ccc(OC)c(OC)c3)oc2c1,45.8,
COc1ccc(C2c3cc4c(cc3OC(NNS(=O)(=O)c3ccc(C)cc3)C2C)OCO4)cc1 (stereo not given),> 100,
CCC12C=CCN3CCC4(C(=C(C(=O)OC)[C@@H]1O)Nc1ccccc14)C32 (stereo not given in full),5.37,
O=C(O)CN(CC(=O)O)C1CCCCC1N(CC(=O)O)CC(=O)NCCN=C=S (stereo not given),> 100,
Oc1cc2c3c(c1)c1cc4c(cc1c[n+]3CC2)OCO4,> 75.7,
Cc1cn(C2CC(N(O)C(N)=O)C(CO)O2)c(=O)[nH]c1=O (stereo not given),> 100,
COc1nc(N)c(C(=O)CCl)c(=O)n1C,29,
[N-]=[N+]=Nc1cc(=O)oc2ccccc12,> 100,
CC(=O)NC1=C(NCCC(C)C)C(=O)c2ccccc2C1=O,> 50,
Nc1cccc2cc(Cl)cnc12,> 100,
CC1=C(C)[C@@]2(C)O[C@@]2(C)O[C@@]2(C)O[C@@]12C,> 100,
O=C([O-])CC(=O)[O-].O=C([O-])CC(=O)[O-].[K+].[Pd+2],> 100,> 100

# System: MDA-MB-435
# Test: DTP human tumour cell line panel, 48 h
row,Structure (SMILES),TGI [µM]
1,O=c1[nH][nH]c(=O)n1Cc1ccccc1Cn1c(=O)[nH][nH]c1=O,> 100
2,CCOC(=O)c1c2ccccc2n2c(N)c(C(N)=O)nnc12,> 100
3,CC[C@@]1(O)C(=O)OCc2c1cc1n(c2=O)Cc2c-1nc1ccccc1c2/C=N\NC(=O)CN,41.5
4,CCOC(=O)C(NC(C)=O)(Nc1ccc(F)cc1)C(F)(F)F (stereo not given),> 100
5,CC1(C)N=C(/C(Cl)=[N+](/[O-])C(=O)c2ccc(F)cc2)C(C)(C)N1O,49.3
6,COC(=O)[C@H](Cc1c[nH]c2ccccc12)NP(=O)(O)OCC1C=CC(n2cc(C)c(=O)[nH]c2=O)O1 (stereo not given in full),> 100
7,COC(=O)[C@H]1CO[C@@H](C(C)(C)C)N1C(=O)N1C=CC(=O)C[C@@H]1C,> 100
8,Clc1ccc(/C=C/c2nc3ccccc3s2)cc1Cl,> 100
9,Cc1ccc(SCC(CSCCO)OCn2cnc3c2NC(N)=NC32OCCO2)cc1 (stereo not given),> 100
10,COC(=O)C1CCC(=O)N1C(c1ccccc1)c1ccc(OC)c(OC)c1 (stereo not given),> 100
11,NC(=O)C(c1ccccc1)N1OC2C(=O)N(c3ccccc3)C(=O)C2C1c1c2ccccc2c(Cl)c2ccccc12 (stereo not given),> 100
12,COc1ccc2c(=O)c(O)c(-c3ccc(OC)c(OC)c3)oc2c1,> 100
13,COc1ccc(C2c3cc4c(cc3OC(NNS(=O)(=O)c3ccc(C)cc3)C2C)OCO4)cc1 (stereo not given),> 100
14,c1ccc(N=C2SC3=Nc4cccc5cccc(c45)N3C2=Nc2ccccc2)cc1,> 100
15,O=C(O)CN(CC(=O)O)C1CCCCC1N(CC(=O)O)CC(=O)NCCN=C=S (stereo not given),> 100
16,Oc1cc2c3c(c1)c1cc4c(cc1c[n+]3CC2)OCO4,> 55
17,Cc1cn(C2CC(N(O)C(N)=O)C(CO)O2)c(=O)[nH]c1=O (stereo not given),> 100
18,Nc1cccc2cc(Cl)cnc12,> 100
19,CC1=C(C)[C@@]2(C)O[C@@]2(C)O[C@@]2(C)O[C@@]12C,> 100

# System: OVCAR-4 ovarian
# Test: DTP human tumour cell line panel, 48 h
row,Structure (SMILES),TGI [µM]
1,COc1cc([C@@H]2OCC3C(c4ccc5c(c4)OCO5)OCC32)cc(OC)c1OC (stereo not given in full),> 100
2,CCOC(=O)c1c2ccccc2n2c(N)c(C(N)=O)nnc12,> 100
3,CC[C@@]1(O)C(=O)OCc2c1cc1n(c2=O)Cc2c-1nc1ccccc1c2/C=N\NC(=O)CN,> 100
4,CNC(=O)C(C)C1CCC2(C)C=CC(=O)C(C)=C2C1O (stereo not given),> 100
5,CCOC(=O)C(NC(C)=O)(Nc1ccc(F)cc1)C(F)(F)F (stereo not given),> 100
6,CCOc1cc2c(cc1O)/C(=N\OC)C[C@@H]1[C@@H]2CC[C@]2(C)[C@@H](O)CC[C@@H]12,> 100
